Experimental data published in the supplement of paper PMC10307832.

How the values were obtained:
Assay in all cases: relative viability (nuclei count vs DMSO), 5 days (fraction); higher = more cells survive
AZD5582 + Tozasertib = compound: C[C@@H](C(=O)N[C@@H](C1CCCCC1)C(=O)N2CCC[C@H]2C(=O)N[C@@H]3[C@@H](CC4=CC=CC=C34)OCC#CC#CCO[C@@H]5CC6=CC=CC=C6[C@@H]5NC(=O)[C@@H]7CCCN7C(=O)[C@H](C8CCCCC8)NC(=O)[C@H](C)NC)NC [AZD5582] + Cc1cc(Nc2cc(N3CCN(C)CC3)nc(Sc3ccc(NC(=O)C4CC4)cc3)n2)n[nH]1 [Tozasertib] (partner 0.1 µM)
In short: (§1)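 A single step with final 0.05% Triton X-100, 1% formaldehyde and 1 ug/ml Hoechst fixed the cells and stained nuclei 5 days after treatment. Lung cancer cell lines in 1536-well plates had been treated by pin tool the day after seeding with one drug alone or a fixed anchor-drug dose plus five library-drug doses (not always all listed) in √10 steps, and nuclei were counted on 4× images. Relative viability is the ratio of nuclei in treated wells to nuclei in vehicle wells, taken as the median of duplicate plates.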

[1] = compound: Cn1nnc2c(C(N)=O)ncn2c1=O [Temozolomide] + CC(C)C[C@H](NC(=O)[C@H](Cc1ccccc1)NC(=O)c1cnccn1)B(O)O [Bortezomib] (partner 0.002 µM)
In short: as §1

Temozolomide + Foretinib = compound: Cn1nnc2c(C(N)=O)ncn2c1=O [Temozolomide] + COc1cc2c(Oc3ccc(NC(=O)C4(C(=O)Nc5ccc(F)cc5)CC4)cc3F)ccnc2cc1OCCCN1CCOCC1 [Foretinib] (partner 0.25 µM)
In short: as §1

[2] = compound: Cn1nnc2c(C(N)=O)ncn2c1=O [Temozolomide] + C[C@]1(O)C[C@@H](c2nc(-c3ccc4ccc(-c5ccccc5)nc4c3)c3c(N)nccn32)C1 [Linsitinib] (partner 1 µM)
In short: as §1

Cell Line | relative viability (AZD5582 + Tozasertib; first compound 0.001581 µM) | relative viability (AZD5582 + Tozasertib; first compound 0.005 µM) | relative viability (AZD5582 + Tozasertib; first compound 0.01581 µM) | relative viability (AZD5582 + Tozasertib; first compound 0.05 µM) | relative viability ([1]; first compound 0.2 µM) | relative viability ([1]; first compound 0.6325 µM) | relative viability ([1]; first compound 2 µM) | relative viability ([1]; first compound 6.325 µM) | relative viability ([1]; first compound 20 µM) | relative viability (Temozolomide + Foretinib; first compound 0.2 µM) | relative viability (Temozolomide + Foretinib; first compound 0.6325 µM) | relative viability (Temozolomide + Foretinib; first compound 2 µM) | relative viability (Temozolomide + Foretinib; first compound 6.325 µM) | relative viability (Temozolomide + Foretinib; first compound 20 µM) | relative viability ([2]; first compound 0.2 µM) | relative viability ([2]; first compound 0.6325 µM) | relative viability ([2]; first compound 2 µM) | relative viability ([2]; first compound 6.325 µM) | relative viability ([2]; first compound 20 µM)
HCC-15 | 0.375 | 0.42 | 0.473 | 0.459 | 1.02 | 1.06 | 1.05 | 0.975 | 1.1 | 1.15 | 1.04 | 1.06 | 0.969 | 1.1 | 0.976 | 0.905 | 0.928 | 0.858 | 0.888
NCI-H3122 | 0.157 | 0.178 | 0.477 | 0.121 | 1.01 | 1.1 | 1.04 | 0.937 | 1.04 | 0.915 | 0.924 | 1.07 | 1 | 0.946 | 0.963 | 1.02 | 1.02 | 0.985 | 0.98
NCI-H838 | 0.265 | 0.307 | – | 0.292 | 0.829 | 0.929 | 1.1 | 0.847 | 0.832 | 1.01 | 0.939 | 1.02 | 0.994 | 1.09 | 1.03 | 1.05 | 1.03 | 1.08 | 1.09
NCI-H1975 | 0.643 | 0.858 | 0.742 | 0.809 | 0.462 | 0.418 | 0.384 | 0.413 | 0.298 | 0.997 | 0.936 | 1.09 | 0.917 | 0.931 | 0.961 | 1.01 | 0.922 | 0.903 | 0.9
NCI-H441 | 0.581 | 0.653 | – | 0.587 | 0.88 | 0.336 | 0.722 | 0.363 | 0.44 | 1.12 | 0.937 | 1.15 | 1.02 | 1.07 | 0.651 | 0.601 | 0.548 | 0.451 | 0.529
NCI-H23 | 0.304 | 0.278 | 0.328 | 0.347 | 1.46 | 1.19 | 0.993 | 0.968 | 0.993 | 1.02 | 0.979 | 0.97 | 0.778 | 1.05 | 0.596 | 0.541 | 0.698 | 0.668 | 0.5
HARA | 0.0907 | 0.117 | 0.13 | 0.0952 | 1.26 | 1.16 | 1.24 | 1.14 | 1.05 | 0.8 | 0.991 | 1.05 | 0.671 | 0.641 | 0.593 | 0.985 | 1.09 | 0.933 | 0.863
ABC-1 | 0.157 | 0.169 | 0.196 | 0.166 | 0.351 | 0.274 | 0.383 | 0.315 | 0.256 | 1.06 | 0.96 | 1.21 | 1.07 | 1.11 | 0.899 | 0.83 | 0.943 | 0.716 | 0.771
LOU-NH91 | 0.594 | 0.679 | 0.679 | 0.613 | 0.487 | 0.514 | 0.565 | 0.543 | 0.456 | 0.674 | 0.913 | 0.941 | 0.568 | 0.569 | 0.534 | 0.955 | 1.01 | 0.932 | 0.505
NCI-H596 | – | – | 0.943 | 0.338 | 1.04 | 1.02 | 0.97 | 0.908 | 1.07 | 0.952 | 0.925 | 0.997 | 0.451 | 0.818 | 1.16 | 1.08 | 1.02 | 1.09 | 1.02
NCI-H2405 | 0.74 | 0.813 | 0.708 | 0.85 | 1.07 | 0.976 | 1.01 | 0.715 | 0.954 | 0.992 | 1.07 | 1.09 | 1.01 | 0.994 | 0.707 | 0.924 | 1.09 | 0.858 | 0.95
PC-3 [JPC-3] | 0.775 | 0.909 | 0.804 | 0.42 | 0.844 | 0.781 | 0.874 | 0.791 | 0.418 | 1.11 | 1.03 | 0.998 | 1.03 | 0.526 | 0.932 | 0.975 | 0.941 | 0.987 | 0.499
NCI-H1666 | 0.539 | 0.682 | 0.638 | 0.678 | 0.779 | 0.9 | 0.595 | 0.647 | 0.416 | 0.917 | 0.868 | 0.837 | 0.611 | 0.679 | 0.69 | 0.713 | 0.616 | 0.688 | 0.482
COR-L 105 | 0.373 | 0.404 | 0.282 | 0.418 | 0.646 | 0.683 | 1.01 | 0.756 | 0.32 | 1.17 | 1.29 | 1.18 | 0.51 | 1.11 | 0.919 | 1.01 | 1.03 | 0.797 | 0.7
NCI-H2085 | 0.716 | 0.708 | 0.798 | 0.606 | 0.992 | 1.26 | 1.04 | 1.01 | 0.888 | 0.847 | 1.04 | 1.05 | 0.939 | 0.749 | 0.865 | 0.919 | 0.788 | 0.994 | 0.84
NCI-H1734 | 0.255 | 0.263 | 0.257 | 0.313 | 1.07 | 0.871 | 0.963 | 0.771 | 0.949 | 0.874 | 0.929 | 0.959 | 0.754 | 0.859 | 0.824 | 0.811 | 0.986 | 0.865 | 0.845
NCI-H520 | 0.441 | 0.394 | 0.544 | 0.51 | 0.733 | 0.688 | 0.768 | 0.636 | 0.548 | 0.908 | 0.842 | 0.704 | 0.689 | 0.769 | 1.03 | 0.904 | 0.98 | 0.941 | 1.04
